# Patent publication EP1588698A2, “A process for the production and screening of materials for use in pharmaceutical aerosol formulations” (Thompson, James Anthony, priority 2004, dated 2005)
# Experiments:
# Format in all cases: physicochemical
# [1] = Stability of ethanol / HFA 134(a) pMDI formulations in plastic coated glass bottles; details: ethanol co-solvent in HFA 134(a); equivalent to 100mcg of free base per actuation
# From the text: The solid compound is then isolated by a suitable method. Figures 3 and 4 indicates the solubility profiles of the respective salts synthesised. […] The mass of derivative was formulated at a level to give an equivalent to 100mcg of free base per actuation from the metering valve. Results from the formulations are depicted in figure 5 for the maleate salt 6 for the oleate salt and 7 to illustrate the precipitation technique by 7 controlled precipitation by the use of a second antisolvent: water on formulations of salbutamol maleate. […] Skilled artisans may endeavour to include surfactants or further co-solvents to enhance solubility. Such excipients may include but not be limited to conventional surfactants: Brij's Tween's lecithins polyvinylpyrollidone and those described in suitable pharmaceutical excipients handbooks. Figures 5, 6 (maleate salt side and plan views) and 7 (oleate salt arrows indicate crystals) illustrate 134(a) as an antisolvent as the drug […] from solution. The particle size of each drug is different, which leads to an embodiment of invention: use of derivative, co-solvent level, excipients level and antisolvent concentrations to precipitate actives to a desired particle size by careful moderation of the components. […] Formulations were then stored at specified temperatures and assessed periodically. […]
# [2] = Cascade impactor particle size and deposition under controlled temperature and relative humidity
# From the text: Formulations of salt derivatives whether prepared by the following method but any suitable method can be utilise. Plastic coated glass pMDI bottles (St Gobain, France) were weighed on a balance and tared after first undergoing a rinse with clean and dry compressed air. Drug was weighed accurately by difference in order to give an equivalent of 100mcg freebase as related to molecular mass of the salt and the same procedure repeated for absolute ethanol (Fisher scientific). A continuous […] on (Bespak, Kings Lynn, UK), according to manufacturers specifications and the bottle then sonicated (Decon FS 3006) for several minutes to induce complete dissolution of the drug. The bottle was then dried and once again tared on the balance. HFA 134(a) was subsequently charged through the valve using a Pamasol 2002 hand […] (DH Industries, Laindon, Essex, UK). The final formulation preparation was sonicated for a further several minutes for completeness. Formulations were then stored at specified temperatures and assessed periodically. All solutions were prepared in duplicate. 10% w/w ethanol : 90% w/w HFA 134(a) formulations were prepared. This is in no way intended to limit the extent of the formulations. Solutions were tested for particle size using a cascade impactor, which to that practitioner skilled is standardised method for determining particle size distributions, under conditions of thermal and environmental control. Figures 9-12 illustrate the invention from particle size results. […] It is therefore an embodiment to use derivatives to utilise derivatives not known to optimise deposition.
# [3] = Morphology of particles deposited from pMDI (SEM, impactor plate); details: lab ambient, without a liquid air interface
# [4] = Screening of salt derivative solubility in ethanol co-solvent
# From the text: Solubility, of a drug salt derivative, to an appreciable extent, in solvents miscible with the propellant(s) provides a simple yet robust screening method.
# The co-solvent used to screen derivative solubility and formulation approach was ethanol. […] A comprehensive list can be taken from texts such as the handbook of pharmaceutical excipients. Ethanol and water mixtures may be utilised. For solution aerosols a single phase is required when in the final formulation, but equally a suspension or emulsion may results and be utilised. As the model bronchodilator was a basic compound acids requisite for salt formation (from pKa values) were selected. […] The solvent necessary to facilitate dissolution is assumed to be of sufficient dielectric constant and an ideal solvent, although skilled practitioners will endeavor to try a range of solvents as formulation science is empirical. Other examples of suitable acids are acetate, benzenesulphonate, mesylate etc, and can be sought from any suitable text: Martindale 2005. […] Preferentially precipitated or solvated species may result from careful selection of reagents and forms of the active described. Preferentially precipitated or solvated compounds can be isolated either in bulk or in-situ for use.
# Two non-limiting examples of use of the manufacture/ screening method are described below.
Substance,co-solvent level at which stable solution formulations achievable [1],%Deposited at Location ACTUATOR ([2]; HT/HRH),%Deposited at Location FPF ([2]; HT/HRH),%Deposited at Location THROAT ([2]; HT/HRH),%Deposited at Location ACTUATOR ([2]; HT/LRH),%Deposited at Location FPF ([2]; HT/LRH),%Deposited at Location THROAT ([2]; HT/LRH),%Deposited at Location ACTUATOR ([2]; LT/HRH),%Deposited at Location FPF ([2]; LT/HRH),%Deposited at Location THROAT ([2]; LT/HRH),%Deposited at Location ACTUATOR ([2]; LT/LRH),%Deposited at Location FPF ([2]; LT/LRH),%Deposited at Location THROAT ([2]; LT/LRH),particle morphology on deposition [3],solubility in ethanol [4],behaviour of the salt in ethanol solution (stable or precipitates) ([4]; ethanol reaction solution)
Salbutamol cis-octadecenoate (Oleate),30 % w/w,20.37%,67.00%,7.52%,16.74%,67.87%,7.70%,19.54%,67.43%,8.82%,6.86%,72.33%,17.29%,spread as a surfactant,–,–
salbutamol fumarate,–,–,–,–,–,–,–,–,–,–,–,–,–,–,NB the Fumarate was insoluble in ethanol even though its only difference to the maleate was the trans arrangement of the carboxylic acid groups.,–
Salbutamol cis-butenedioate (Maleate),15 % w/w,27.35%,57.42%,11.78%,22.00%,63.24%,12.74%,16.33%,52.88%,25.96%,8.97%,42.76%,44.24%,–,ethanol soluble,"stable as a solution in ethanol, even at ultra low temperatures"
